Results published in patent US8158589B2, “Peptides with the capacity to bind to transforming growth factor β1 (TGF-β1)” (Proyecto Biomedicine Cima, S.L., priority 2003, dated 2012).
Ends that are not written are not given here.

Legend:
TGF-β1 [1] = molecular target: T1, TGF-β1 (Homo sapiens, UniProt P01137); test: α-SMA expression induced by TGF-β1 in IMR-90 lung fibroblasts, western blot; assay type: cell-based; parameters: purchased R&D Systems; host or cells: added to IMR-90 human lung fibroblasts; details: IMR-90 cells, 5 ng/ml TGF-β1, peptide 100 μg/ml, 24 hours
T1 sequence (P01137 279-390 limits assumed): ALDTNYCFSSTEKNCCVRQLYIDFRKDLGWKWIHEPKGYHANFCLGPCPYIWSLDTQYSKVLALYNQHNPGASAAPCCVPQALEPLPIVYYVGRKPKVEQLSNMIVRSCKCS
Method: (§1) IMR-90 human lung fibroblasts (ATCC, Manassas, Va.) were cultured in EMEM medium (Cambrex, Belgium) supplemented with 10% fetal bovine serum (FBS), 1 mM sodium pyruvate, 0.1 mM nonessential amino acids, 100 U/ml penicillin and 100 μg/ml streptomycin (Gibco BRL, UK). For experiments, 6×10^4 cells/well were cultured in 6-well plates in 2 ml of medium and when they were 80% confluent, medium was replaced with serum-free EMEM for 48 h to induce quiescence. TGF-β1 (5 ng/ml) and P17 (100 μg/ml) were co-incubated for 90 min at 37° C. to allow binding of both molecules before addition to cell cultures. Quiescent cells were then stimulated with TGF-β1 and/or P17 for up to 6 or 24 h. After these incubation periods, fibroblasts were harvested for gene and protein analysis, respectively.
To assess alpha-Smooth Muscle Actin (αSMA) expression, IMR-90 fibroblasts were lysed with RIPA buffer containing 10 U/ml leupeptin, 10 U/ml pepstatin, 1 mM phenylmethanesulfonylfluoride (PMSF), 1 mM Na3VO4 and 1 mM NaF. […] Membranes were analyzed for expression of αSMA protein using anti-αSMA monoclonal antibody (Sigma-Aldrich) at a dilution of 1:2000 and horseradish peroxidase-labeled anti-mouse IgG (Sigma-Aldrich). Expression of actin was detected using anti-actin monoclonal antibody (Sigma-Aldrich) (1:2000 dilution) and horseradish peroxidase-labeled anti-rabbit IgG (Sigma-Aldrich). […]

TGF-β1 [2] = molecular target: T1, TGF-β1; test: CTGF mRNA expression induced by TGF-β1 in IMR-90 lung fibroblasts, real time RT-PCR; assay type: cell-based; parameters: purchased R&D Systems; host or cells: added to IMR-90 human lung fibroblasts; details: IMR-90 cells, 5 ng/ml TGF-β1, peptide 100 μg/ml, 6 hours
Method: as §1
Total RNA was purified from IMR-90 fibroblasts and whole lung samples using Ultraspec RNA (Biotecx; Houston, Tex.) according to the manufacturer's instructions. […] Expression of human Connective Tissue Growth Factor (CTGF) mRNA induced by TGF-β1 in IMR-90 fibroblasts was measured by real time RT-PCR using an ICycler and IQ SYBR Supermix (Bio-Rad, Italy). […] For in vivo analysis, expression of murine Fibronectin (FN), extra domain A of Fibronectin (EDA-FN), Collagen type I and Interferon gamma (IFN-γ) was measured in lungs, using Histone 3 as internal control. […]

TGF-β1 [3] = molecular target: T2, TGF-β1 (Mus musculus, UniProt P04202); test: Bleomycin-induced pulmonary fibrosis, preventive treatment started two days after bleomycin; assay type: in vivo, mice
T2 construct: from tissue; host or cells: liver of Balb/C mice (CCl4 model); lung of C57BL/6 mice (bleomycin model)
T2 sequence (P04202 279-390 limits assumed): as the sequence (P01137 279-390 limits assumed) above, with A75S counted along it
Method: Female C57BL/6 mice (6-8 weeks of age) were obtained from Harlan SL (Barcelona, Spain) and maintained in accordance with the ethical committee of Universidad de Navarra (Spain) for the experimental use of animals. Lung injury was induced with 0.08 units/mouse of bleomycin sulfate (Sigma, Spain) diluted in 200 μl of phosphate buffered saline (PBS). Briefly, the suspension of bleomycin was instilled by pippeting into the nose of mice previously anesthetized with 2% isoflurane vapor. PBS was instilled in mice as a negative control for pulmonary fibrosis (PF), following the same procedures. Peptide treatment was started two days after bleomycin challenge and it was administered intraperitoneally in 500 μl of PBS on alternate days. Mice received high (75 μg/mouse) or low (25 μg/mouse) doses of P17, or the high dose (75 μg/mouse) of control peptide P301. […] To study the therapeutic effect of P17 in the development of fibrosis, it was administered daily ten days after bleomycin challenge, once fibrosis was established. Twenty six days after bleomycin instillation, mice were sacrificed and lung samples were fixed in order to evaluate histological damage.
Total RNA was purified from IMR-90 fibroblasts and whole lung samples using Ultraspec RNA (Biotecx; Houston, Tex.) according to the manufacturer's instructions. First, 1 μg of RNA was incubated with Dnase I (2 U/μl) (Gibco-BRL) for 30 min at 37° C. Then, samples were reverse-transcribed with the M-MLV Reverse transcriptase (Gibco-BRL) in the presence of RNaseOUT (Gibco-BRL) with ramdon hexamers and poly (dT) oligos according to the manufacturer's protocol. Expression of human Connective Tissue Growth Factor (CTGF) mRNA induced by TGF-β1 in IMR-90 fibroblasts was measured by real time RT-PCR using an ICycler and IQ SYBR Supermix (Bio-Rad, Italy). Actin was used as endogenous reference housekeeping gene. For in vivo analysis, expression of murine Fibronectin (FN), extra domain A of Fibronectin (EDA-FN), Collagen type I and Interferon gamma (IFN-γ) was measured in lungs, using Histone 3 as internal control. The amount of each transcript was expressed by the formula: 2^ΔCt (ΔCt=Ct(control gene)−Ct(gene)), wherein Ct is the threshold cycle number at which an increase in the signal associated with exponential growth of PCR products begins to be detected using Bio-Rad analysis software.
Lungs were fixed by inflation with 4% paraformaldehyde overnight and dehydrated in 70% ethanol. Tissue was embedded in paraffin wax, 3 μm thick sections were prepared and stained with Masson's trichrome to measure collagen deposition. Percentage of fibrosis in the lung was evaluated by light microscopy by three different qualified persons using a blinded system.
Dewaxed and rehydrated lung tissue sections were subjected to endogenous peroxidase inactivation with a blocking reagent (DakoCytomation, Denmark) for 10 min. They were then incubated for two hours with a 1/50 dilution in PBS of mouse anti-human α-SMA monoclonal antibody (DakoCytomation) that cross-reacts with mouse α-SMA. Next, sections were incubated for 1 hour with a peroxidase-labeled polyclonal rabbit anti-mouse immunoglobulin (DakoCytomation). Peroxidase activity was visualized using DAB+ Chromogen (DakoCytomation) as substrate and sections were counterstained with Harris hematoxylin. Expression of αSMA was evaluated by light microscopy and expressed as percentage of α-SMA positive area.
Lymphocyte infiltrate in the lungs was also determined by immunohistochemical analysis. In this case, lung sections were incubated with a mouse anti-human αCD3 monoclonal antibody that cross-reacts with mouse CD3 (NeoMarkers, CA) and then with an anti-mouse immunoglobulin coupled with peroxidase (DakoCytomation). CD3-positive cells were counted in a whole lobe (about 20 fields).

[4] = 75 μg/mouse, 14 days after bleomycin instillation, RT-PCR

α-SMA expression induced by TGF-β1 (TGF-β1 [1]): inhibited
CTGF mRNA expression induced by TGF-β1 (TGF-β1 [2]): significantly decreased
lung fibrosis (Masson's Trichrome) (TGF-β1 [3]; 25 μg/mouse intraperitoneally on alternate days from day 2, day 26): No beneficial effect
lung fibrosis (Masson's Trichrome) (TGF-β1 [3]; 75 μg/mouse intraperitoneally on alternate days from day 2, day 26, vs control peptide): significant decrease of fibrosis
collagen type I mRNA in lungs (TGF-β1 [3]; [4]): significant reduction
fibronectin mRNA in lungs (TGF-β1 [3]; [4]): significantly downregulated
EDA-FN mRNA in lungs (TGF-β1 [3]; 75 μg/mouse, 14 days after bleomycin instillation, vs control peptide): lower expression levels
IFN-γ mRNA expression in lungs (TGF-β1 [3]; 75 μg/mouse, RT-PCR): upregulated
T lymphocytes (CD3+ cells) in lung sections (TGF-β1 [3]; 75 μg/mouse, vs bleomycin mice with or without P301): significant reduction
IL-10 or IL-4 mRNA expression in lungs (TGF-β1 [3]; P17 vs P301 control peptide, RT-PCR, data not shown): did not show any significant difference
areas of myofibroblasts (α-SMA expression) in lungs (TGF-β1 [3]; high dose 75 μg/mouse, immunohistochemistry): fewer areas of myofibroblasts
Sequence: KRIWFIPRSSWYERA [SEQ ID NO: 17, KRIWFIPRSSWYERA]
